Results: patent publication US20180168154A1, “PLANT GROWTH REGULATING COMPOUNDS” (Syngenta Participations AG, priority 2015, published 2018)
Like-named read-outs stand apart in the source and are kept apart here. Marks after values point to notes of the source that are not given here. Each block holds one compound with its values, some of them ahead of it.

Legend:
Soil stability assay = type: physicochemical; details: Stein soil:sand 1:1, 0.3 μg/g soil, dark, 20° C.
Description: It is highly desirable that agrochemicals applied to soil in order to deliver a beneficial biological effect can exist in the soil for a prolonged period of time with minimal degradation. However, a biologically active agrochemical compound may undergo chemical transformation in soil, leading to decreased levels of activity and a decrease in a desired biological effect. Simple laboratory degradation studies can be used to evaluate the disappearance due to biotic and abiotic processes of a compound in soil. The time taken for a compound to degrade in soil allows the estimation of their half-life (t1/2), which corresponds to the time in which 50% of the compound under evaluation is degraded in soil. […] Stock standard solutions were prepared by dissolving 1 mg of each test compound (ie, compounds (IA-1a and IA-1b), (IA-17a and IA-17b), P1 and P2) in acetonitrile. The stock standard solutions were stored at 6° C. Working standard solutions were then obtained by a series of dilutions of the stock standard solutions. A treatment solution of 100 μg/mL concentration for each test compound was prepared in methanol. Soil samples used for this soil stability assay were collected at the Syngenta Research Centre location in Stein (Switzerland). The soil was classified as clay loam. Certain physical properties of the soil are described in Table 2. 2 mm sieved Stein soil was mixed with sand at ratio 1:1 prior to starting the laboratory soil degradation experiment. 10 g of the sand-soil mix (air-dried basis) was weighed into 50 ml Corning® polypropylene centrifuge tubes and soil moisture was adjusted at 45% of the field capacity. Chemical application was performed by applying 30 μl of a 100 μg/mL solution of each test compound to 10 g soil vessel corresponding to a final concentration of 0.3 μg test compound per gram of soil. Three replicates were considered for each test compound. Treated tubes were incubated in the dark at 20° C.±0.5. For the estimation of half-life, different sampling times were considered. Based on initial studies, a fast degradation was expected for compounds P1, P2 and IA-17 therefore the following short sampling times of 0, 3, 6, 9 and 24 hours after application were considered. Conversely for compounds IA-1, longer sampling times of 0, 6, 24, 48, 72, 168 and 240 hours after application were used. At each sampling time, samples were removed and stored at −80° C. until analysis. The half-lives were calculated by an exponential regression analysis plotting the percentage of recovered compound in soil against the time. Compounds P1, P2, (IA-1) and (IA-17) were extracted from soil by using 30 mL of Acetonitrile (CHROMASOLV® gradient grade, for HPLC, >99.9%, SIGMA-ALDRICH). The mixture was shaken for 3 hours at room temperature by using a vertical rotary shaker. After centrifugation at 3000 rpm for 5 minutes, an aliquot of the supernatant was collected and analyzed via UPLC-MS (Waters Acquity UPLC-MS PDA-Detection: 254 nm- and SQD-Zspray ESI, APCI, ESCi®-; Waters Acquity UPLC Column HSS T3 2.1×30 mm-1.8 μm; Gradient mobile phase with Solvent A: Water/MeOH (9:1)+ 0.1% Formic Acid and Solvent B: Acetonitrile+ 0.1% Formic Acid; flow of 0.75 ml/min).

[1] = Hydrolytic stability assay; type: physicochemical; details: for half-life: 20 mM mixed acetate, borate and phosphate buffer; for half-life / Hydrolytic Stability (t1/2, hours) pH 7: 40° C.; for % remaining at last assessment time: pH 7, 40° C.
Experimental: The objective of the hydrolytic stability assays is to determine the chemical stability of individual test compounds according to the invention in a controlled and reproducible environment, allowing a comparison of compound in vitro stability under aqueous conditions at pH 7 and 9. Prior to conducting the individual hydrolytic stability assays, stock solutions containing 1000 ppm of each test compound (ie, compounds (IA-1a), (IA-1b), (IA-17a), (IA-17b), P1 and P2) were prepared in methanol. The reagents used in the assays were prepared as follows. A 20 mM buffer solution was prepared from a stock solution of 20 mM mixed acetate, borate and phosphate buffer and the pH adjusted to 7 or 9 as required. Test solutions were prepared in LC vials for each test compound in the following manner: Mobile Phase Control: Mobile phase (1 mL)+compound stock solution (2 to 40 μL). Hydrolytic Stability: Buffer (1 mL)+compound stock solution (2 to 40 μL). The mobile phase and buffer were initially dispensed into separate glass LC vials, placed into an autosampler complete with thermostat set at 40° C. and allowed to equilibrate for 30 minutes prior to starting the individual assays. Reactions were initiated by addition of the compound solution and monitored through a series of repeat injections made directly from the vial into the HPLC system at regular time intervals. Initial and subsequent measurements of peak area attributable to the test compound were used to fit exponential half-lives and calculate first-order rate constants. […] Consequently, the percentage of compound remaining was recorded at the last assessment time.

NK Falkone corn seeds = assay: Corn seed germination under cold stress; type: in vivo; details: 250 μM, cold stress 15° C., control T50 = 110 hours; negative = faster germination
Experimental: Corn seed germination studies were undertaken on the compounds of the present invention. In particular, the effect of the compounds of Formulae (IA-1a) and (IA-1b) on the germination of NK Falkone corn seeds (Syngenta) under cold stress was evaluated as follows.
NK Falkone corn seeds were sorted by size using 2 sieves, one excluding very big seeds and the other with round holes of 8 to 9 mm diameter. The seeds retained by the latter sieve were used for the germination test.
The corn seeds were placed in 24 well plates (each plate is considered as one experimental unit or replicate). Germination is initiated by the addition of 250 μl of distilled water containing 0.5% DMSO per well as a means for compound solubilization. 8 replicates (ie, 8 plates) were used for each treatment characterization. Plates were sealed using seal foil (Polyolefin Art. Nr. 900320) from HJ-BIOANALYTIK. All plates were placed horizontally on trolleys in a climatic chamber at 15° C. or 23° C. in complete darkness. The experiment was laid out in a completely randomized design in a climatic chamber with 75% relative humidity. Foils were pierced, one hole per well using a syringe after 72 hours for experiments performed at 15° C. and after 24 hours for experiments performed at 23° C.
Germination was followed over time by taking photographs at different time points. Image analysis is done automatically with a macro developed using the Image J software. A dynamic analysis of germination is carried out by fitting a logistic curve to the relationship between % germination and time for each plate (T50 parameter).
T50 is the time needed for half the seed population to be germinated. A negative value of T50 represents a faster germination rate. The mean of T50 parameters is calculated for the 8 replicates and the kinetic parameter is determined for each germination curve. Data in bold indicate germination enhancing statistically significant differences between treated seeds and control (empty vehicle treated) T50 values (P<0.05) as outlined in Table 4.

[2] = pH 9, 20 mM acetate/borate/phosphate buffer, read-out: Hydrolytic Stability (t1/2, hours) pH 9 (converted)
[3] = pH 7, 20 mM acetate/borate/phosphate buffer
[4] = pH 7, 20 mM acetate/borate/phosphate buffer, read-out: Hydrolytic Stability (t1/2, hours) pH 7 (converted)

Compound: CC1=C(C)[C@H](O/C=C2/C(=O)N[C@@H]3c4ccccc4C[C@H]23)OC1=O [(IA-1a), (3E,3aR,8bS)-3-[[(2R)-3,4-dimethyl-5-oxo-2H-furan-2-yl]oxymethylene]-1,3a,4,8b-tetrahydroindeno[1,2-b]pyrrol-2-one]
- Soil Stability (t1/2, hours) (Soil stability assay): 87 h
- half-life [1, 2]: 2.4 h
- Hydrolytic Stability (t1/2, hours) pH 7 [1, 3]: stable^b
- Hydrolytic Stability (t1/2, hours) pH 7 ([1]; pH 7, 20 mM acetate/borate/phosphate buffer, listed as IA-1a): insufficient loss was observed
- % remaining at last assessment time ([1]; at 17.9 hours): ^b91.8% remaining at 17.9 hours
- T50 (% vs control) (NK Falkone corn seeds): −6.10^c % vs control

Compound: CC1=C(C)[C@@H](O/C=C2/C(=O)N[C@@H]3c4ccccc4C[C@H]23)OC1=O [(IA-1b), (3E,3aR,8bS)-3-[[(2S)-3,4-dimethyl-5-oxo-2H-furan-2-yl]oxymethylene]-1,3a,4,8b-tetrahydroindeno[1,2-b]pyrrol-2-one]
- Soil Stability (t1/2, hours) (Soil stability assay): 53 h
- half-life [1, 2]: 2.1 h
- Hydrolytic Stability (t1/2, hours) pH 7 [1, 3]: stable^a
- Hydrolytic Stability (t1/2, hours) pH 7 ([1]; pH 7, 20 mM acetate/borate/phosphate buffer, listed as IA-1b): insufficient loss was observed
- % remaining at last assessment time ([1]; at 21.1 hours): ^a90.9% remaining at 21.1 hours
- T50 (% vs control) (NK Falkone corn seeds): −7.60 % vs control

Compound: COC1=C(C)C(=O)O[C@H]1O/C=C1/C(=O)N[C@@H]2c3ccccc3C[C@H]12 [(IA-17a), (3E,3aR,8bS)-3-[[(2R)-3-methoxy-4-methyl-5-oxo-2H-furan-2-yl]oxymethylene]-1,3a,4,8b-tetrahydroindeno[1,2-b]pyrrol-2-one]
- Soil Stability (t1/2, hours) (Soil stability assay): 340 h
- half-life [1, 2]: 16.6 h
- Hydrolytic Stability (t1/2, hours) pH 7 [1, 3]: stable^d
- Hydrolytic Stability (t1/2, hours) pH 7 ([1]; pH 7, 20 mM acetate/borate/phosphate buffer, listed as IA-17a): insufficient loss was observed
- % remaining at last assessment time ([1]; at 17.3 hours): ^d99.1% remaining at 17.3 hours
- T50 (% vs control) (NK Falkone corn seeds): −6.50 % vs control

Compound: COC1=C(C)C(=O)O[C@@H]1O/C=C1/C(=O)N[C@@H]2c3ccccc3C[C@H]12 [(IA-17b), (3E,3aR,8bS)-3-[[(2S)-3-methoxy-4-methyl-5-oxo-2H-furan-2-yl]oxymethylene]-1,3a,4,8b-tetrahydroindeno[1,2-b]pyrrol-2-one]
- Soil Stability (t1/2, hours) (Soil stability assay): 312 h
- half-life [1, 2]: 19 h
- Hydrolytic Stability (t1/2, hours) pH 7 [1, 3]: stable^c
- Hydrolytic Stability (t1/2, hours) pH 7 ([1]; pH 7, 20 mM acetate/borate/phosphate buffer, listed as IA-17b): insufficient loss was observed
- % remaining at last assessment time ([1]; at 16.8 hours): ^c99.0% remaining at 16.8 hours
- T50 (% vs control) (NK Falkone corn seeds): −5.10 % vs control

Further lines, with some results ahead:

- Soil Stability (t1/2, hours) (Soil stability assay): 4 h
- half-life [1, 4]: 25.6 h
- half-life [1, 2]: 0.4 h
- % remaining at last assessment time ([1]; at 21.5 hours): ^f55.4% remaining at 21.5 hours
Compound: CC1=C[C@H](O/C=C2/C(=O)N[C@@H]3c4ccccc4C[C@H]23)OC1=O [Compound P1, reference compound]
- T50 (% vs control) (NK Falkone corn seeds): −4.20 % vs control

- Soil Stability (t1/2, hours) (Soil stability assay): 4.2 h
- half-life [1, 4]: 79.5 h
- half-life [1, 2]: 0.3 h
- % remaining at last assessment time ([1]; at 15.8 hours): ^e86.9% remaining at 15.8 hours
Compound: CC1=C[C@@H](O/C=C2/C(=O)N[C@@H]3c4ccccc4C[C@H]23)OC1=O [Compound P2, reference compound]
- T50 (% vs control) (NK Falkone corn seeds): −2.30 % vs control
